Here are results for three compounds from ChEMBL document CHEMBL1135318 (Bioorg Med Chem Lett, 2002).

For assay [1], the target named is T1, Muscarinic acetylcholine receptor M2 (Homo sapiens, UniProt P08172).
T1 sequence (P08172 whole entry): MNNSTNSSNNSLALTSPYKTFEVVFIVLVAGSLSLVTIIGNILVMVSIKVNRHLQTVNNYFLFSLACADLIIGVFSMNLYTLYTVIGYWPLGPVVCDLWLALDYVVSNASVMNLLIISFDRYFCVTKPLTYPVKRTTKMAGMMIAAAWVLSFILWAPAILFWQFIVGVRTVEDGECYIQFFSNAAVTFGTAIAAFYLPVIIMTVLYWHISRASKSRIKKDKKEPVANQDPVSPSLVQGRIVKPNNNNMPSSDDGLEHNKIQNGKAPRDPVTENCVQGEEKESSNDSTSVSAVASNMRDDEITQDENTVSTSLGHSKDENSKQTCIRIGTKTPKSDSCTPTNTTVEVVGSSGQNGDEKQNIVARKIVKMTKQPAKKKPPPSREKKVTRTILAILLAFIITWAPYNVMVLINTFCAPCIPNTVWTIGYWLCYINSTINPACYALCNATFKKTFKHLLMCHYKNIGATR
The assay can be described thus: In vitro affinity for muscarinic M2 receptor.

The target in assay [2] is T2, Muscarinic acetylcholine receptor M3 (Homo sapiens, UniProt P20309). The assay can be described thus: In vitro affinity for muscarinic M3 receptor.
Target sequence in this assay (P20309 whole entry): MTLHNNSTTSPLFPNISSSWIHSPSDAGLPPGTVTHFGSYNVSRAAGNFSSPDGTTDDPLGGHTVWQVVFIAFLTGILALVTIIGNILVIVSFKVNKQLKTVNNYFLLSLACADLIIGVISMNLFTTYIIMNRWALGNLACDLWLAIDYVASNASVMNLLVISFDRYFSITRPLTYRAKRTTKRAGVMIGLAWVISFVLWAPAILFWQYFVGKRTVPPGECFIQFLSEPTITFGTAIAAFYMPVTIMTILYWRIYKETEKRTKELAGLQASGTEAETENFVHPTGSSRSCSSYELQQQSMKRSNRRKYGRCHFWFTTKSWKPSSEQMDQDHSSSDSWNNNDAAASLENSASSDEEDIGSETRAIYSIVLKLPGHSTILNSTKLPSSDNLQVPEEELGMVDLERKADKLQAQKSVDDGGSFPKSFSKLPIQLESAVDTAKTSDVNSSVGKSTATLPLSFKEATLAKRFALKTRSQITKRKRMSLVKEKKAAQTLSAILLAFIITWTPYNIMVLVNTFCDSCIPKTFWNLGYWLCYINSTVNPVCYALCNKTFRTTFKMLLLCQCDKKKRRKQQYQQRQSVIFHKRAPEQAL
In assay [3] the target is T2, Muscarinic acetylcholine receptor M3. The assay can be described thus: Displacement of [3H]N-methylscopolamine from membrane preparation from CHO-K1 cells for Muscarinic acetylcholine receptor M3. In kind it is cell membranes. The settings on record: concentration not given here. (In general: Displacement assays read how much labelled ligand stays bound in the presence of the test substance.)
Target sequence in this assay (P20309 whole entry, looked up): as the sequence (P20309 whole entry) above

Assay [4] addresses T3, Muscarinic acetylcholine receptor M2 (Homo sapiens) (UniProt P08172).
T3 sequence (whole entry): T1 sequence (P08172 whole entry)
The assay can be described thus: Displacement of [3H]N-methylscopolamine from membrane preparation from CHO-K1 cells for Muscarinic acetylcholine receptor M2. The class given is cell membranes. The note with it: concentration not given here.

In assay [5] the target is T2, Muscarinic acetylcholine receptor M3. The assay can be described thus: Displacement of [3H]N-methylscopolamine from membrane preparation from CHO-K1 cells for Muscarinic acetylcholine receptor M3; value given as 20-50%. In kind it is cell membranes. The settings on record: concentration not given here.
Target sequence in this assay (P20309 whole entry, looked up): as the sequence (P20309 whole entry) above
Assay [6] has as its target T3, Muscarinic acetylcholine receptor M2 (Homo sapiens). In words: Displacement of [3H]N-methylscopolamine from membrane preparation from CHO-K1 cells for Muscarinic acetylcholine receptor M2; value given as 20-50%. In kind it is cell membranes. The settings on record: concentration not given here.

Some results are limits rather than exact numbers.

By Ki is commonly meant the dissociation constant of the complex between target and ligand, obtained from inhibition or displacement. Lower therefore signals tighter binding. As a reminder, the inhibition is how much of the control response was suppressed. The low end stands for a response near the control, the high end for a response far below the control.

As to `O=C(c1ccccc1)N(Cc1ccccc1)C1CCN(Cc2ccccc2)CC1`, the Ki in assay [1] was 631 nM; in assay [2], 158 nM.
For the compound `O=C(c1cccs1)N(C1CCC1)C1CCN(Cc2ccccc2)CC1`, the inhibition in assay [3] and in assay [4] was below 20% each time.
As to `O=C(c1ccccc1)N(C1CCC1)C1CCN(Cc2ccccc2)CC1`, the inhibition in assay [5] and in assay [6] was 20% each time.
